Laboratory results from article PMC8508963 (2021).

Columns and labels:
Test in all cases: fluorescence titration and Job plot
[1] = tested on: m-tel24 (DNA, G4) TTGGGTTAGGGTTAGGGTTAGGGA; conditions: 100 mM K+ (KCl) plus 20 mM potassium phosphate; pH 7, 20 °C, Job total 2 µM; highest fluorescence; groove binding suggested by induced CD
[2] = tested on: M2 (DNA, G4) TAGGGACGGGCGGGCAGGGT; conditions: 100 mM K+ (KCl) plus 20 mM potassium phosphate; pH 7, 20 °C, Job total 2 µM; medium fluorescence enhancement
[3] = tested on: ds12 (DNA, duplex) CGCGAATTCGCG; conditions: 100 mM K+ (KCl) plus 20 mM potassium phosphate; pH 7, 20 °C, Job total 2 µM; lowest fluorescence enhancement

binding [1]: yes
binding [2]: yes
binding [3]: yes
SMILES: CN(C)CCCNC(=O)c1ccc2[nH]c3c([nH]c2c1)c1c(=O)n(CCCN(C)C)c(=O)c2ccc4c(=O)n(CCCN(C)C)c(=O)c3c4c21
